# Source: US20240109934A1, “ANTIBIOTICS WITH IMPROVED DRUG RESISTANCE PROFILE” (priority 2021, published 2024)
# Where two headings read alike, the source gives them in different places.
# Tests used:
# [1] = tested on: S. aureus resistant mutants with EF-G (fusA) mutations; experiment: microbe, parasite or virus in culture; type: cell-based; settings: for MIC: Staphylococcus aureus
# Description: (§1) Antimicrobial Susceptibility Tests. Susceptibility testing was performed in biological triplicate, using the micro-dilution broth method as outlined by the Clinical and Laboratory Standards Institute. Bacteria were cultured with cation-adjusted Muller-Hinton broth (Sigma-Aldrich, Cat #90922) in round-bottom 96-well plates (Corning, Cat #3788). Human serum (Ultrafiltrate, unspecified gender, 30K Dalton membrane filtered) was purchased from BioIVT (Hicksville, NY).
# (§2) Selection of Resistant Mutants. Resistant mutants were selected via the large inoculum method. Briefly, S. aureus ATCC 29213 (1×10^9 CFU) were plated on 100 mm plates of LB agar containing 4, 2, 1, 0.5, and 0.25 μg/mL.
# (§3) Sequencing of fusA. FusA was amplified by colony PCR. Colonies were picked and diluted in 100 μL sterile H2O. PCR reactions are setup by combining MiFi Mix (Bioline, London, UK), 20 μM primer mix [fusA-F2, fusA_seq1, Forward EF-G2, and Reverse EF-G](S. aureus ATCC 29213), template DNA, and H2O. Reactions were performed on C1000 Thermal Cycler (Bio-Rad, Hercules, CA) with the following conditions: 5 minutes denaturation at 95° C., followed by 30 cycles of 20 seconds at 95° C., 20 seconds at 50° C., and either 1 minute (fusA1) or 1.5 minutes (fusA2) at 72° C. A 10 μL portion of the PCR reaction mixture was analyzed by agarose gel to confirm the product. PCR reactions were purified using GeneJET PCR Purification Kit (Thermo Scientific). PCR amplicons were submitted to the Core DNA Sequencing Facility at the University of Illinois at Urbana-Champaign for Sanger sequencing with the following primers to sequence the fusA [fusA2, fusA_seq1, Forward EF-G2, Forward EF-G3, Forward EF-G4]
# [2] = Mouse MTD / tolerability; settings: mice
# Description: The protocol was approved by the IACUC at the University of Illinois at Urbana-Champaign (Protocol Number: 16144 and 19181). In these studies, 10- to 12-week-old female C57BL/6 mice purchased from Charles River were used. The maximum tolerated dose (MTD) of single compound was determined first. […] All the mice were monitored for signs of toxicity for 2 weeks. For multiple doses, the compound was given by daily IP for 4 consecutive days, and mice were monitored for signs of toxicity for 1 month. MTD was the highest dosage with acceptable toxicity (e.g., <20% weight loss).
# [3] = tested on: S. aureus ATCC 29213; experiment: Neutropenic thigh infection burden study, sensitive strain; type: in vivo; settings: neutropenic CD-1 mice, 50 mg/kg IP at 1, 2, 3 h post infection, burden at 24 h
# [4] = tested on: S. aureus 29213; experiment: MIC shift with 50% human serum; type: cell-based; settings: S. aureus 29213, 50% human serum vs none
# Description: as §1, with “Bacteria were cultured with cation-adjusted Muller-Hinton broth (Sigma-Aldrich, Cat #90922) in round-bottom 96-well plates (Corning, Cat #3788).” left out
# [5] = tested on: FA-Resistant strains of S. aureus; experiment: MIC against 11 FA-resistant strains generated at 4x-32x the MIC; type: cell-based; settings: for MIC: Staphylococcus aureus
# Description: as §1, §2, §3
# [6] = tested on: S. aureus ATCC 29213; experiment: Resistance frequency, large inoculum method; type: cell-based
# Description: as §2
# [7] = tested on: multidrug-resistant clinical isolates of S. aureus; experiment: MIC against multidrug-resistant clinical isolates of S. aureus; type: cell-based; settings: for MIC: Staphylococcus aureus
# [8] = tested on: S. aureus ATCC BAA-1721; experiment: MIC against strain possessing the fusC gene; type: cell-based; settings: Staphylococcus aureus, ATCCBAA1721
compound,measurement,setting,value
"CC(=O)O[C@H]1C[C@@]2(C)[C@@H](C[C@@H](O)[C@H]3[C@@]4(C)CC[C@@H](O)[C@@H](C)[C@@H]4CC[C@@]32C)/C1=C(\CCC=C1CCCC1)C(=O)O [FA-CP, (Z)-2-((3R,4S,5S,8S,9S,10S,11R,13R,14S,16S)-16-acetoxy-3,11-dihydroxy-4,8,10,14-tetramethylhexadecahydro-17H-cyclopenta[a]phenanthren-17-ylidene)-5-cyclopentylidenepentanoic acid]",MIC,"[1]; read-out: MIC for FA-CP, strain FA-CP-32X-1, EF-G H457Y",32 µg/mL
same,MIC,"[1]; read-out: MIC for FA-CP, strain FA-CP-32X-2, EF-G H457Y",64 µg/mL
same,MIC,"[1]; read-out: MIC for FA-CP, strain FA-CP-32X-3, EF-G H457Y",64 µg/mL
same,MIC,"[1]; read-out: MIC for FA-CP, strain FA-CP-32X-4, EF-G H457Y",32 µg/mL
same,MIC,"[1]; read-out: MIC for FA-CP, strain FA-CP-32X-5, EF-G H457Y",64 µg/mL
same,MIC,"[1]; read-out: MIC for FA-CP, strain FA-CP-32X-6, EF-G H457Y",64 µg/mL
same,MIC,"[1]; read-out: MIC for FA-CP, strain FA-CP-32X-7, EF-G H457Y",64 µg/mL
same,MIC,"[1]; read-out: MIC for FA-CP, strain FA-CP-32X-8, EF-G H457Y",64 µg/mL
same,MIC,"[1]; read-out: MIC for FA-CP, strain FA-CP-32X-9, EF-G H457Y",32 µg/mL
same,MIC,"[1]; read-out: MIC for FA-CP, strain FA-CP-32X-10, EF-G D434N",32 µg/mL
same,MIC,"[1]; read-out: MIC for FA-CP, strain FA-CP-32X-11, EF-G H457Y",32 µg/mL
same,MIC,"[1]; read-out: MIC for FA-CP, strain FA-CP-32X-12, EF-G D434N",32 µg/mL
same,MIC,"[1]; read-out: MIC for FA-CP, strain FA-CP-32X-13, EF-G H457Y",64 µg/mL
same,MIC,"[1]; read-out: MIC for FA-CP, strain FA-CP-32X-14, EF-G H457Y",32 µg/mL
same,MIC,"[1]; read-out: MIC for FA-CP, strain FA-CP-32X-15, EF-G H457Y",64 µg/mL
same,MIC,"[1]; read-out: MIC for FA-CP, strain FA-CP-32X-16, EF-G F88L",64 µg/mL
same,MIC,"[1]; read-out: MIC for FA-CP, strain FA-CP-32X-17, EF-G F88L",64 µg/mL
same,MIC,"[1]; read-out: MIC for FA-CP, strain FA-CP-32X-18, EF-G H457Y",64 µg/mL
same,MIC,"[1]; read-out: MIC for FA-CP, strain FA-CP-32X-19, EF-G H457Y",32 µg/mL
same,MIC,"[1]; read-out: MIC for FA-CP, strain FA-CP-32X-20, EF-G H457Y",32 µg/mL
same,Fold increase from WT S. aureus of highest MIC,[1]; colonies generated from the same compound at 32× the MIC,512
same,Tolerability,[2]; 50 mg/kg IP once-a-day for 4 consecutive days,well tolerated
same,Tolerability,"[2]; single dose of 50 mg/kg, IP injection",well tolerated
same,Bacterial burden in thigh,[3],Significant reductions in bacterial burden
same,Fold Change Increase in MIC with 50% Human Serum,[4],8X
same,MIC,"[5]; strain FA-4X-A, EF-G T385N",2 µg/mL
same,MIC,"[5]; strain FA-4X-B, EF-G T385N",2 µg/mL
same,MIC,"[5]; strain FA-8X-A, EF-G T385N",2 µg/mL
same,MIC,"[5]; strain FA-8X-B, EF-G R464L",8 µg/mL
same,MIC,"[5]; strain FA-16X-A, EF-G H457Y",64 µg/mL
same,MIC,"[5]; strain FA-32X-A, EF-G F88L",128 µg/mL
same,MIC,"[5]; strain FA-32X-B, EF-G P406L",4 µg/mL
same,MIC,"[5]; strain FA-32X-C, EF-G H457L",128 µg/mL
same,MIC,"[5]; strain FA-32X-D, EF-G T436I",2 µg/mL
same,MIC,"[5]; strain FA-32X-E, EF-G H457N",128 µg/mL
same,MIC,"[5]; strain FA-32X-F, EF-G D434N",32 µg/mL
same,Fold improvement in activity against FA-resistant strains relative to FA,[5]; eleven FA-resistant S. aureus strains,2-8 fold
same,Resistance frequency relative to FA,[6]; at 2× and 32× the MIC,modest improvement in resistance frequency
same,Resistance frequency relative to FA,"[6]; head-to-head with FA, 2×-32× the MIC",improvement in resistance frequency relative to FA
same,Cross-resistance with vancomycin,[7]; 29 clinical isolates of S. aureus,no cross-resistance with vancomycin
same,MIC,"[7]; NRS3, S. aureus NRS3 (NARSA)",0.0625 µg/mL
same,MIC,"[7]; NRS4, S. aureus NRS4 (NARSA)",0.0625 µg/mL
same,MIC,"[7]; NRS17, S. aureus NRS17 (NARSA)",0.0625 µg/mL
same,MIC,"[7]; NRS18, S. aureus NRS18 (NARSA)",0.125 µg/mL
same,MIC,"[7]; NRS21, S. aureus NRS21 (NARSA)",0.0625 µg/mL
same,MIC,"[7]; NRS22, S. aureus NRS22 (NARSA)",0.0625 µg/mL
same,MIC,"[7]; NRS23, S. aureus NRS23 (NARSA)",0.125 µg/mL
same,MIC,"[7]; NRS24, S. aureus NRS24 (NARSA)",0.0625 µg/mL
same,MIC,"[7]; NRS26, S. aureus NRS26 (NARSA)",0.0625 µg/mL
same,MIC,"[7]; NRS27, S. aureus NRS27 (NARSA)",0.125 µg/mL
same,MIC,"[7]; NRS29, S. aureus NRS29 (NARSA)",0.125 µg/mL
same,MIC,"[7]; NRS51, S. aureus NRS51 (NARSA)",0.0625 µg/mL
same,MIC,"[7]; NRS68, S. aureus NRS68 (NARSA)",0.125 µg/mL
same,MIC,"[7]; NRS73, S. aureus NRS73 (NARSA)",0.125 µg/mL
same,MIC,"[7]; NRS74, S. aureus NRS74 (NARSA)",0.125 µg/mL
same,MIC,"[7]; NRS76, S. aureus NRS76 (NARSA)",0.125 µg/mL
same,MIC,"[7]; NRS77, S. aureus NRS77 (NARSA), no noted resistance",0.0625 µg/mL
same,MIC,"[7]; NRS382, S. aureus NRS382 (NARSA)",0.0625 µg/mL
same,MIC,"[7]; NRS383, S. aureus NRS383 (NARSA)",0.125 µg/mL
same,MIC,"[7]; NRS384, S. aureus NRS384 (NARSA)",0.125 µg/mL
same,MIC,[7]; S. aureus AR0561 (CDC),0.125 µg/mL
same,MIC,[7]; S. aureus AR0562 (CDC),0.125 µg/mL
same,MIC,[7]; S. aureus AR0563 (CDC),0.125 µg/mL
same,MIC,[7]; S. aureus AR0564 (CDC),0.125 µg/mL
same,MIC,[7]; S. aureus AR0565 (CDC),0.0625 µg/mL
same,MIC,[7]; S. aureus AR0566 (CDC),0.125 µg/mL
same,MIC,[7]; S. aureus AR0567 (CDC),0.125 µg/mL
same,MIC,[7]; S. aureus AR0568 (CDC),0.125 µg/mL
same,MIC,[7]; S. aureus AR0570 (CDC),0.125 µg/mL
same,MIC,[8],8 µg/mL
